According to US8658642B2 (Axikin Pharmaceuticals, Inc., priority 2009, dated 2014):

Tests used:
CCR3 = target: T1, CCR3 (Homo sapiens, UniProt P51677); test: CCR3 receptor binding assay ([125I]-labeled human eotaxin/CCL11 displacement on cells); conditions: 0.1 nM [125I]-labeled human eotaxin/CCL11, 2×10^5 cells/well, 60 min at room temperature
T1 sequence (P51677 1-355): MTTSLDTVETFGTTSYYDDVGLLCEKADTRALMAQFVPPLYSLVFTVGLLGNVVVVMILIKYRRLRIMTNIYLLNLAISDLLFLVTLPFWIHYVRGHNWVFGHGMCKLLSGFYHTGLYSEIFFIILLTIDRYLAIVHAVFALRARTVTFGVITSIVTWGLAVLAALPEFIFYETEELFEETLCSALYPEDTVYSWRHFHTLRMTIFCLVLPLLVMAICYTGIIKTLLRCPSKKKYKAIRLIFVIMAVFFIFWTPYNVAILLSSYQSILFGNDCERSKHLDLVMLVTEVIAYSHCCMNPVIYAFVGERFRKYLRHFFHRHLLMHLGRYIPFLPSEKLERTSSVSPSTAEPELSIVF
Summary of the method: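 Cells (2×10^5/well) incubated 60 min at room temperature with 0.1 nM [125I]-human eotaxin/CCL11 in 25 mM HEPES pH 7.6, MgCl2, CaCl2, 0.5% BSA. Bound radioactivity counted after filtration and 0.5 M NaCl washes. Non-specific binding defined with 500 nM unlabeled eotaxin.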

Row | Structure (SMILES) | Ki (CCR3) [µM] | melting point [°C]
1 | CS(=O)(=O)N1CCN(S(=O)(=O)c2cc([N+](=O)[O-])ccc2Sc2cc(Cl)ccc2Cl)CC1 [Compound 202, 1-(2-(2,5-Dichlorophenylthio)-5-nitrophenylsulfonyl)-4-(methylsulfonyl)-piperazine] | > 5 | 277 to 281
2 | CN(C)S(=O)(=O)N1CCN(S(=O)(=O)c2cc([N+](=O)[O-])ccc2Sc2cc(Cl)ccc2Cl)CC1 [Compound 203, 4-(2-(2,5-Dichlorophenylthio)-5-nitrophenylsulfonyl)-N,N-dimethyl-piperazine-1-sulfonamide] | > 5 | 231 to 234
3 | O=[N+]([O-])c1ccc(Sc2cc(Cl)ccc2Cl)c(S(=O)(=O)N2CCN(S(=O)(=O)c3ccccc3)CC2)c1 [Compound 204, 1-(2-(2,5-Dichlorophenylthio)-5-nitrophenylsulfonyl)-4-(phenylsulfonyl)-piperazine] | > 5 | 236 to 239
4 | O=[N+]([O-])c1ccc(Sc2cc(Cl)ccc2Cl)c(S(=O)(=O)N2CCN(S(=O)(=O)c3ccc(C(F)(F)F)cc3)CC2)c1 [Compound 205, 1-(2-(2,5-dichlorophenylthio)-5-nitrophenylsulfonyl)-4-(4-(trifluoromethyl)phenylsulfonyl)piperazine] | > 5 | 264 to 267
